Data as given in publication PMC4592245 (PLoS ONE, 2015).

Tests used:
[1] = system: ICR mice; assay: Electrocardiogram (EKG) measurements; type: in vivo, mouse;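 further: Non-invasive EKG recorded at several successive time points, with each individual signal then analysed by physiologic waveform analysis software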
Description: Non-invasive EKG recordings were made using the ECGenie system (Mouse Specifics) at several subsequent time points. […] Data acquisition was performed using the program LabChart 6 (AD Instruments). Individual EKG signals were then evaluated using e-MOUSE physiologic waveform analysis software (Mouse Specifics) as previously described [31].

[2] = target: T1, SRC–3 (Homo sapiens, UniProt Q9Y6Q9); assay: SRC-3 levels in tumor tissues (Western blotting, IHC); type: in vivo, nude mice; design: from tissue; host or cells: orthotopic MDA-MB-231-LM3-3 xenograft tumours from nude mice; conditions: 0.75 mg/kg 3 times per week
Description: Cell lysate was prepared by adding RIPA buffer (containing 10 mM Tris-Cl pH 8.0, 1 mM EDTA, 0.5 mM EGTA, 1% Triton X–100, 0.1% sodium deoxycholate, 0.1% SDS, 140 mM NaCl, and protease inhibitors) to cells kept on ice. After spinning samples at 16,000 rpm for 15 minutes at 4°C, insoluble materials in the collected cell lysate were precipitated and discarded. The total protein concentration was measured using a Bradford protein assay. An equivalent mass of each sample was loaded and electrophoretically separated by 10% SDS-PAGE. Then proteins on PAGE the gel were transferred to a PVDF membrane. Anti-SRC–3 (Cell Signaling Technology Co. Cat# 2126) and anti-actin (Cell Signaling Technology Co. Cat# 8457) were used to probe the membranes.
The formalin-fixed, paraffin-embedded tissue was dried at 58°C for 1 hour in an oven, and de-paraffinized by soaking slides in xylene, ethanol, and finally distilled water. Antigen was retrieved by steaming slides in a target retrieval solution, 10 mM citrate buffer (pH 6.0), for 30 minutes. Endogenous peroxidases were blocked with a 3% of hydrogen peroxide solution in PBS buffer. The leftover hydrogen peroxide was removed with PBS rinse. […] To visualize the immunostaining, the sections were incubated with a fresh DAB solution (Dako Inc. Cat# K3468) and monitored under a microscope. […]

[3] = system: Ki–67; assay: Ki-67 immunohistochemistry of tumor tissue; type: in vivo, nude mice; conditions: 0.75 mg/kg 3 times per week
Description: The formalin-fixed, paraffin-embedded tissue was dried at 58°C for 1 hour in an oven, and de-paraffinized by soaking slides in xylene, ethanol, and finally distilled water. Antigen was retrieved by steaming slides in a target retrieval solution, 10 mM citrate buffer (pH 6.0), for 30 minutes. Endogenous peroxidases were blocked with a 3% of hydrogen peroxide solution in PBS buffer. The leftover hydrogen peroxide was removed with PBS rinse. […] To stain the SRC–3 antigen, anti-SRC–3 antibody (Mouse source, BD Biosciences Inc. Cat# 611104) was pre-diluted 1:400 in a normal serum blocking solution. To stain the Ki–67 antigen, anti-Ki–67 (Rabbit source, Cell Signaling Technology Inc. Cat#9027) was used in 1:10000 dilution. During the staining procedure, the sections were incubated with HRP-polymer conjugated secondary antibodies (Vector Laboratories, Cat#7401 for rabbit antibody, Cat#MP–2400 for mouse antibody). To visualize the immunostaining, the sections were incubated with a fresh DAB solution (Dako Inc. Cat# K3468) and monitored under a microscope. Once ideal signals were observed, the reaction was stopped by rinsing the slides with water. Nuclear counterstain was also performed by immersing slides in Mayer’s Hematoxylin and a bluing reagent.

[4] = Pharmacokinetic study of 3-phospho-bufalin
Description: Five quality control (QC) samples at 10 ng/mL, 20 ng/mL, 500 ng/mL, 4000 ng/mL and 8000 ng/mL of plasma were prepared independently of those used for the calibration curves. QC samples were prepared on the day of analysis in the same way as the calibration standards.
Standards, QC samples, and unknown samples were injected into LC-MS/MS for quantitative analysis. The pharmacokinetic parameters of p-Buf were analyzed using WinNonLin. The PK trace was fitted into a non-compartmental extravascular model.

[5] = target: T1, SRC–3; assay: Western blotting of SRC-3, dose response in LM3-3 cells; type: cell-based; design: endogenous in cells
[6] = system: heart muscle; assay: H&E staining of heart tissues; conditions: 24 h after drug administration
[7] = system: MDA-MB-231-LM3-3 orthotopic breast tumors; assay: Therapeutic efficacy in orthotopic TNBC mouse model; type: in vivo, nude mice
Description: To establish orthotopic breast tumors, 0.75 × 10^6 MDA-MB-231-LM3-3 cells were injected into one of the second mammary fat pads of nude mice (Charles River Laboratories, female, 6–7 weeks, n = 6/group). Phospho-bufalin was dissolved in PBS for tumor treatment. PBS was injected as the vehicle control. When tumors became palpable, generally 14 days after injection, mice were randomized into two groups. The treatment group was then injected with phospho-bufalin subcutaneously (0.75 mg/kg per dose, 3 doses per week) for 3 weeks while the control group received PBS. Tumor lengths and widths were measured three times per week. Tumor sizes were calculated by: (length × width × width)/2.

[8] = system: cancer cells; conditions: selective toxicity towards cancer cells; cited from earlier work
[9] = system: LM3-3 cells; assay: Gefitinib and bufalin co-treatment, cell viability; type: cell-based
[10] = system: mouse primary hepatocytes; assay: Viability of primary hepatocytes; type: cell-based; conditions: concentrations of up to 10 μM
Description: The HCC1143 cell line was grown in RPMI–1640 medium, SUM149PT and SUM159PT cell lines were grown in F–12 medium, and MDA-MB–231 cells were grown in DMEM. All culture media were supplemented with 10% fetal bovine serum. All cell lines were grown in a humidified incubator containing 5% CO2 at 37°C. Primary hepatocytes were isolated from an adult male mouse (C57BL) by collagenase perfusion (0.8 mg/mL; Sigma–Aldrich, C5138) through the portal vein as described previously, and maintained in M199 medium with 10% FBS. The viability of freshly isolated hepatocytes was verified using Trypan blue staining.
(§1) TNBC cells (5000 to 7000 cells per well) were seeded in 96-well plates in medium supplemented with 10% FBS. […] Cell viabilities relative to untreated control cells were plotted using Graphpad Prism.

[11] = system: HCC1143; assay: Cell cytotoxicity assay (MTT), HCC1143; type: cell-based; conditions: Homo sapiens, HCC1143, 72 h
Description: as §1

[12] = system: SUM149PT; assay: Cell cytotoxicity assay (MTT), SUM149PT; type: cell-based; conditions: 72 h
Description: as §1

[13] = system: LM3-3 cells; assay: Single cell motility assay; type: cell-based
Description: Microtiter 96-well plates pre-coated with collagen V were covered with beads provided by a Cell Motility HCS kit (Thermo Scientific Co. Cat# K0800011). 500 LM3-3 cells were seeded in each bead-coated well. […] The cell track areas (pixels) were counted using Image J. To attain statistical significance, more than 50 cell tracks in each sample were counted.

[14] = system: MDA-MB-231-LM3-3; assay: Cell cytotoxicity assay (MTT), MDA-MB-231-LM3-3; type: cell-based; conditions: MDA-MB-231-LM3-3, 72 h
Description: as §1

[15] = system: MDA-MB–231; assay: Cell cytotoxicity assay (MTT), MDA-MB-231; type: cell-based; conditions: MDA-MB-231, 72 h
Description: as §1

[16] = system: SUM159PT; assay: Cell cytotoxicity assay (MTT), SUM159PT; type: cell-based; conditions: 72 h
Description: as §1

[17] = target: T1, SRC–3; design: Cell lysate was prepared by adding RIPA buffer; endogenous in cells; host or cells: HCC1143, SUM149PT, SUM159PT, MDA-MB-231, MDA-MB-231-LM3-3; method as in PMID 22053001; conditions: cited from earlier work
[18] = 7.5 mg/kg i.p., + 10 min post-injection
[19] = 7.5 mg/kg i.p., - 5 min (before injection)
[20] = 11.25 mg/kg i.p., + 5 min post-injection
[21] = 11.25 mg/kg i.p., + 10 min post-injection
[22] = 11.25 mg/kg i.p., + 15 min post-injection
[23] = 11.25 mg/kg i.p., - 5 min (before injection)
[24] = female, ICR, mouse, plasma, ip, 0.5 mg/kg

T1 sequence (Q9Y6Q9 whole entry): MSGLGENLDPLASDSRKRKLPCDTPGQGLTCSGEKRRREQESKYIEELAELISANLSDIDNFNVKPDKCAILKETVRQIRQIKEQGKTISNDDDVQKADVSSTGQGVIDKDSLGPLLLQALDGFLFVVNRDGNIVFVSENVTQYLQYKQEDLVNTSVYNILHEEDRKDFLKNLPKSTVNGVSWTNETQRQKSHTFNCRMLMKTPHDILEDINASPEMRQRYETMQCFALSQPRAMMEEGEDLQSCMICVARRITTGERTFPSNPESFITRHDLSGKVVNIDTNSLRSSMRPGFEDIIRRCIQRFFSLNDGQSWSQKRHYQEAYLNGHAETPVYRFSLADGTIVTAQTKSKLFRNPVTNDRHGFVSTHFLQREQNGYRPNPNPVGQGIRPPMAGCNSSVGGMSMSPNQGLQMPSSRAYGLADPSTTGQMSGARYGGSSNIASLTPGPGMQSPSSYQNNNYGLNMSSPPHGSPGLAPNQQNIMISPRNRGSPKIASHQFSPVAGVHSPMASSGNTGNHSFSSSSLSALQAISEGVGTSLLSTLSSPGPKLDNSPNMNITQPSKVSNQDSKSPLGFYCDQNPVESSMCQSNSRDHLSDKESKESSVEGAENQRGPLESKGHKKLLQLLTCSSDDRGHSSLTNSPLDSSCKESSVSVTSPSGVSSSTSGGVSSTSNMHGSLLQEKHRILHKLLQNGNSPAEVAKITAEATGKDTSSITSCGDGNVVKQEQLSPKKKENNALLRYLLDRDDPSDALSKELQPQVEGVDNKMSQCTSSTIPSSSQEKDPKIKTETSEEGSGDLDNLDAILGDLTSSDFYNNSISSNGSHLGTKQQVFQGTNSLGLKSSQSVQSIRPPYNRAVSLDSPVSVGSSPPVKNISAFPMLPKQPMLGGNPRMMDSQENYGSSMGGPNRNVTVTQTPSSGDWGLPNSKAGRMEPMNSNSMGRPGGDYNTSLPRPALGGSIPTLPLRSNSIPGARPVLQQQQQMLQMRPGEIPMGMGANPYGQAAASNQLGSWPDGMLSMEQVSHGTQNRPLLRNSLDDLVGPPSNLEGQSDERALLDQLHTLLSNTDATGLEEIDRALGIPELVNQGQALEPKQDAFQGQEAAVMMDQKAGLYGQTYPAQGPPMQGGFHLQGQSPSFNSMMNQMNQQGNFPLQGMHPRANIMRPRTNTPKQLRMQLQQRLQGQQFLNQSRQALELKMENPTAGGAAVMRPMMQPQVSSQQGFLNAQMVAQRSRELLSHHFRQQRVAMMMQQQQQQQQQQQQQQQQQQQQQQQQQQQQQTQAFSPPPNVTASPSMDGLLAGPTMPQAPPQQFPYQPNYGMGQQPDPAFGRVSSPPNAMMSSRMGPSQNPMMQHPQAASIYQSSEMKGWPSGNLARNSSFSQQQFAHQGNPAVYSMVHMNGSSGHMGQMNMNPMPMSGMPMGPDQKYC

Q: For `C[C@]12CC[C@H](OP(=O)(O)O)C[C@H]1CC[C@@H]1[C@@H]2CC[C@]2(C)[C@@H](c3ccc(=O)oc3)CC[C@]12O` [3-phospho-bufalin, 3-Phospho-bufalin], which “changes in EKG parameters” value ([1]; 7.5 mg/kg and 11.25 mg/kg i.p.) is on record?
A: did not observe significant changes in EKG parameters

Q: And the HR [1, 18]?
A: 788.7 ± 1.2 BPM

Q: What about the QRS [1, 18] of the same compound?
A: 11.0 ± 0.1 ms

Q: What about the QT [1, 18] of the same compound?
A: 38.2 ± 0.9 ms

Q: What about the QTc [1, 18] of the same compound?
A: 43.8 ± 1.0 ms

Q: And the RR [1, 18]?
A: 76.1 ± 0.1 ms

Q: And the ST [1, 18]?
A: 27.6 ± 0.9 ms

Q: What about the HR [1, 19] of the same compound?
A: 754.7 ± 6.6 BPM

Q: And the QRS [1, 19]?
A: 10.6 ± 0.1 ms

Q: What about the QT [1, 19] of the same compound?
A: 40.2 ± 0.6 ms

Q: And the QTc [1, 19]?
A: 45.0 ± 0.5 ms

Q: What about the RR [1, 19] of the same compound?
A: 79.6 ± 0.7 ms

Q: And the ST [1, 19]?
A: 30.1 ± 0.7 ms

Q: What about the HR [1, 20] of the same compound?
A: 779.7 ± 1.5 BPM

Q: And the QRS [1, 20]?
A: 10.9 ± 0.1 ms

Q: And the QT [1, 20]?
A: 37.1 ± 0.3 ms

Q: What about the QTc [1, 20] of the same compound?
A: 42.3 ± 0.4 ms

Q: What about the RR [1, 20] of the same compound?
A: 77.0 ± 0.1 ms

Q: And the ST [1, 20]?
A: 26.7 ± 0.4 ms

Q: What about the HR [1, 21] of the same compound?
A: 761.3 ± 7.5 BPM

Q: And the QRS [1, 21]?
A: 11.1 ± 0.2 ms

Q: What about the QT [1, 21] of the same compound?
A: 38.1 ± 0.6 ms

Q: What about the QTc [1, 21] of the same compound?
A: 43.0 ± 0.6 ms

Q: What about the RR [1, 21] of the same compound?
A: 78.8 ± 0.8 ms

Q: What about the ST [1, 21] of the same compound?
A: 26.6 ± 0.5 ms

Q: What about the HR [1, 22] of the same compound?
A: 755.0 ± 1.0 BPM

Q: What about the QRS [1, 22] of the same compound?
A: 11.5 ± 0.1 ms

Q: And the QT [1, 22]?
A: 39.1 ± 0.9 ms

Q: What about the QTc [1, 22] of the same compound?
A: 43.9 ± 0.9 ms

Q: And the RR [1, 22]?
A: 79.5 ± 0.1 ms

Q: And the ST [1, 22]?
A: 28.1 ± 0.8 ms

Q: What about the HR [1, 23] of the same compound?
A: 798.0 ± 12.8 BPM

Q: And the QRS [1, 23]?
A: 10.6 ± 0.3 ms

Q: And the QT [1, 23]?
A: 39.1 ± 2.4 ms

Q: And the QTc [1, 23]?
A: 45.1 ± 2.9 ms

Q: And the RR [1, 23]?
A: 75.8 ± 0.2 ms

Q: And the ST [1, 23]?
A: 29.0 ± 2.2 ms

Q: And the “SRC-3 level in tumor tissue (IHC staining) versus PBS” value [2]?
A: significantly lower

Q: And the “SRC-3 protein levels in tumor tissues (Western blotting) versus PBS” value [2]?
A: significantly lower

Q: And the “Ki-67 positive cells in tumor tissue (IHC)” value [3]?
A: dramatically fewer Ki–67 positive cells

Q: What about the AUC(0-inf) [4, 24] of the same compound?
A: 0.046 ± 0.018 µM·h

Q: What about the AUC(0-t) [4, 24] of the same compound?
A: 0.031 ± 0.018 µM·h

Q: What about the Tmax [4, 24] of the same compound?
A: 15 min

Q: And the half-life [4, 24]?
A: 44.5 ± 6.24 min

Q: What about the “conversion to parent bufalin in vivo” value ([4]; free bufalin detected in plasma) of the same compound?
A: can be converted to parent bufalin in vivo

Q: What about the “potency to inhibit SRC-3 levels compared with bufalin” value ([5]; LM3-3 cells, Western blotting) of the same compound?
A: less potent than bufalin

Q: What about the “downregulation of SRC-3 in LM3-3 cells (Western blotting)” value ([5]; dose response) of the same compound?
A: can also inhibit SRC–3 expression levels

Q: And the “damage to cardiomyocytes (histology)” value [6]?
A: little damage to cardiomyocytes

Q: What about the “body weight versus control at the end of the experiment” value ([7]; 0.75 mg/kg 3 times per week) of the same compound?
A: statistically the same body weight

Q: What about the “tumor growth (tumor volume)” value ([7]; 0.75 mg/kg, 3 times per week for 3 weeks, subcutaneously) of the same compound?
A: significantly inhibit TNBC tumor growth

Q: What about the “tumor weight, PBS treated relative to treatment group” value ([7]; day 31, 0.75 mg/kg 3 times per week) of the same compound?
A: ~ 2.4 times

Q: With `C[C@]12CC[C@H](O)C[C@H]1CC[C@@H]1[C@@H]2CC[C@]2(C)[C@@H](c3ccc(=O)oc3)CC[C@]12O` [bufalin] as the compound, how does the IC50 values [8] read?
A: low nM range

Q: What about the “combination effect with gefitinib on LM3-3 cell viability” value ([9]; 5 or 10 nM bufalin with gefitinib) of the same compound?
A: synergize with gefitinib

Q: And the “toxicity in mouse primary hepatocytes” value [10]?
A: did not cause any observable toxicity

Q: What about the IC50 [11] of the same compound?
A: 71.8 nM

Q: What about the IC50 [12] of the same compound?
A: < 20 nM

Q: What about the IC50 ([12]; Homo sapiens) of the same compound?
A: 16.6 nM

Q: What about the “toxicity toward LM3-3 cells under motility assay conditions” value ([13]; 12 h) of the same compound?
A: minimal toxicity

Q: What about the “motility of LM3-3 cells” value ([13]; increasing concentrations) of the same compound?
A: decreased with increasing concentrations

Q: And the IC50 ([14]; 72 h)?
A: 16.6 nM

Q: What about the IC50 [14] of the same compound?
A: < 20 nM

Q: And the “time post injection at which bufalin became undetectable” value ([4]; released bufalin after p-Buf 0.5 mg/kg i.p.)?
A: 1 h

Q: And the IC50 ([15]; Homo sapiens)?
A: 20 nM

Q: What about the IC50 [15] of the same compound?
A: < 20 nM

Q: What about the “damage to cardiomyocytes (histology)” value [6] of the same compound?
A: little damage to cardiomyocytes

Q: What about the IC50 [16] of the same compound?
A: < 20 nM

Q: And the IC50 ([16]; Homo sapiens, SUM-159-PT)?
A: 15.9 nM

Q: With `COc1cc2ncnc(Nc3ccc(F)c(Cl)c3)c2cc1OCCCN1CCOCC1` [gefitinib] as the compound, how does the “toxicity in LM3-3 cells, gefitinib alone” value ([9]; concentrations up to 20 μM) read?
A: minimal toxicity

Q: Which IC50 values [17] does the source give for `Cc1cc2c(C(C)C)c(O)c(O)c(C=O)c2c(O)c1-c1c(C)cc2c(C(C)C)c(O)c(O)c(C=O)c2c1O` [gossypol] here?
A: micromolar
